Laboratory results: ChEMBL document CHEMBL1151648, “The Sesquiterpenes of Lactarius vellereus and Their Role in a Proposed Chemical Defense System” (J Nat Prod, 1985)

Columns and labels:
Type in all cases: functional
Escherichia coli = experiment: Antimicrobial activity against Escherichia coli by Kirby-Bauer growth inhibition assay
Micrococcus luteus = experiment: Antimicrobial activity against Micrococcus luteus by Kirby-Bauer growth inhibition assay
Candida albicans = experiment: Antimicrobial activity against Candida albicans by Kirby-Bauer growth inhibition assay

Structure (SMILES)	Activity (Escherichia coli) [µg]	Activity (Micrococcus luteus) [µg]	Activity (Candida albicans) [µg]
CC1(C)C[C@H]2C=C(C=O)[C@]3(C=O)C[C@]3(C)[C@H]2C1 [ISOVELLERAL]	15	2	2
CC1(C)C[C@H]2C=C3COC(O)[C@]34C[C@]4(C)[C@H]2C1 (stereo not given in full) [ISOVELLEROL]	>1000	300	50
C[C@H]1C=C(C=O)C(C=O)=C[C@@H]2CC(C)(C)C[C@@H]21 [LACTARANE]	50	15	2
C[C@H]1C=C(CO)C(CO)=C[C@@H]2CC(C)(C)C[C@@H]21 [VELLERDIOL]	>1000	>1000	>1000
C[C@H]1C=C(C=O)C(CO)=C[C@@H]2CC(C)(C)C[C@@H]21 [VELLEROL]	>1000	300	100
